According to ChEMBL document CHEMBL4251720, “Estrogen Receptor (ER) Subtype Selectivity Identifies 8-Prenylapigenin as an ERβ Agonist from Glycyrrhiza inflata and Highlights the Importance of Chemical and Biological Authentication” (J Nat Prod, 2018):
One block for each compound: values may come before it.

Key:
Estrogen receptor [1] = biological target: T1, Estrogen receptor (Homo sapiens, UniProt P03372); assay: Estrogenic activity at ERalpha in human Ishikawa cells assessed as induction of alkaline phosphatase activity at 0.01 to 1 uM using […] as substrate treated for 96 hrs followed by substrate addition by spectrophotometric method; type: cell-based
T1 sequence (P03372 whole entry): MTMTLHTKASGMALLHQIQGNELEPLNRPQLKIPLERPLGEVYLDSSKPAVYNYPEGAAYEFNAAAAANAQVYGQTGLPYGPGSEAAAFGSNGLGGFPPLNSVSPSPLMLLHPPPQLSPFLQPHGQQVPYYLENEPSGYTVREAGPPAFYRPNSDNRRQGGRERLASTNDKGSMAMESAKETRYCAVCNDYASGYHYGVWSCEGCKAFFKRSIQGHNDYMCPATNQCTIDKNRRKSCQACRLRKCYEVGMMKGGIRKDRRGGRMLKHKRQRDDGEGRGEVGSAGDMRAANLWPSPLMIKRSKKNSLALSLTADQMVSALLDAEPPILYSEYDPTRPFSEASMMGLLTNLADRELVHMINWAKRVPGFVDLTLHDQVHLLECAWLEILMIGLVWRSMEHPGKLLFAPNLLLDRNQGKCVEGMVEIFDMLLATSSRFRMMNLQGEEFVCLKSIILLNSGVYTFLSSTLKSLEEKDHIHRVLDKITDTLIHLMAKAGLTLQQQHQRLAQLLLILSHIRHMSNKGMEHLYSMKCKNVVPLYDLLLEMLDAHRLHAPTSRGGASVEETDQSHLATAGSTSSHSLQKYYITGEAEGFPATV

Estrogen receptor beta [2] = biological target: T2, Estrogen receptor beta (Homo sapiens, UniProt Q92731)
Description: (§1) Estrogenic activity at ERbeta (unknown origin) expressed in human MDA-MB-231/beta41 cells after 18 hrs by renilla luciferase reporter gene assay

Estrogen receptor [3] = biological target: T1, Estrogen receptor
Description: Estrogenic activity at ERalpha in human Ishikawa cells assessed as induction of alkaline phosphatase activity using p-nitrophenol as substrate treated for 96 hrs followed by substrate addition by spectrophotometric method

Estrogen receptor beta [4] = biological target: T2, Estrogen receptor beta; remark: listed apart in the source
Description: as §1

[5] = biological target: T3, Estrogen receptor alpha (ERalpha) (Homo sapiens, UniProt P03372); assay: in vitro; conditions: Ishikawa cells, probe p-nitrophenol (so in the source) as alkaline phosphatase substrate
T3 sequence (P03372 whole entry): T1 sequence (P03372 whole entry)
Description: Estrogenic activity at ERalpha in human Ishikawa cells assessed as induction of alkaline phosphatase activity using p-nitrophenol as substrate treated for 96 hrs followed by substrate addition by spectrophotometric method relative to estradiol

T2 sequence (Q92731 whole entry): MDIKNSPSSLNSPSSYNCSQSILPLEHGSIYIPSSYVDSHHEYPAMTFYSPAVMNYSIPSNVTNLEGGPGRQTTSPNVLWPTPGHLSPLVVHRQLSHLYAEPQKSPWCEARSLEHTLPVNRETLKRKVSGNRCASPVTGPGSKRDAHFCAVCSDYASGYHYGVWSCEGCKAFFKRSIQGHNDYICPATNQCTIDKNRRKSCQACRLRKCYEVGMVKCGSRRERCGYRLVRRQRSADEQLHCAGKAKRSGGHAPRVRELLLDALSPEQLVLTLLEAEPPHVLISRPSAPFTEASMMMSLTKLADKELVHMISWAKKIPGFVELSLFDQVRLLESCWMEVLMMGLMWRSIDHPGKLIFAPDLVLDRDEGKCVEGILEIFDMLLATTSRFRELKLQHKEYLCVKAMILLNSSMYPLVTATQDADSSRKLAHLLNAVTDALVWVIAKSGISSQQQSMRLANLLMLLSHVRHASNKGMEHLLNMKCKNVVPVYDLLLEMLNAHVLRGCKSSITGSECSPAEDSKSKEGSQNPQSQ

Activity (Estrogen receptor [1]): Not Active
SMILES: COc1cc(O)c(C(=O)/C=C/c2ccc(O)cc2)cc1CC=C(C)C

SMILES: CC(C)=CCc1c(O)cc(O)c2c1O[C@H](c1ccc(O)cc1)CC2=O
EC50 (Estrogen receptor beta [2]): 5 nM

SMILES: CCCc1c(-c2ccc(O)cc2)nn(-c2ccc(O)cc2)c1-c1ccc(O)cc1 [PROPYLPYRAZOLETRIOL]
EC50 (Estrogen receptor [3]): 1 nM
EC50 (Estrogen receptor beta [4]): Not Active
Emax at 96 h [5]: 119%
